In general, IC50 refers to the midpoint of a concentration-inhibition curve. The half-life is how long it takes for the measured level to halve. Low values mean fast loss, high ones slow loss.

One data set addresses T1, human iNOS (Homo sapiens, UniProt P35228).
T1 construct: made in house
The experiment in a line: Inhibition of isolated human iNOS. Type of data set: biochemical. As to conditions: purified human iNOS, haemoglobin absorption assay. An excerpt:
1. Inhibition of Isolated Human iNOS
The inhibition of purified human iNOS may be determined using a preparation of human iNOS as described in the chapter “Expression if Human Nitric Oxide Synthase Isozymes” by Charles et al in Methods in Enzymology, 1996 Volume 268, 449-460. Activity may be monitored using quantitative absorption changes of haemoglobin as described by R. G. Knowles and J. Dawson in “A Microtitreplate Assay of Human NOS Isoforms” in Methods in Molecular Biology, 1998, Volume 100, 237-242, Nitric Oxide Protocols, Ed M. A. Titheradge, Humana Press, Totowa N.J.

A further data set concerns the target T2, iNOS (Rattus norvegicus, UniProt Q06518).
T2 construct: endothelium-denuded rings were exposed to LPS; from tissue; host or cells: rat thoracic aorta rings, endothelium-denuded, LPS-treated
The experiment in a line: Inhibition of iNOS in situ in rat aortic rings (LPS-induced, endothelium-denuded, ring tension). It counts as cell-based. As to the method:
(§1) 2. Inhibition of eNOS and INOS in Rat Aortic Rings
(§2) The inhibition of eNOS and iNOS in situ in rat aortic rings was assessed by measuring the increases in ring tension caused by NO synthase inhibition. For studies of basal tone (reflecting eNOS), rings of thoracic aorta with intact endothelium were prepared as described previously (Rees et at. (1989) Br. J. Pharmol. 96, 418-424) and cumulative concentration curves obtained for the inhibitors in the presence of a threshold concentration of phenylephrine (ED10≈10 nM). For studies of induced smooth muscle tone (reflecting iNOS), endothelium-denuded rings were exposed to LPS (0.1 μg/ml from S. typhosa) in the presence of phenylephrine at approximately ED90 for 6 h as described previously (Rees et al. (1990) Biochem. Biophys. Res. Commun. 173, 541-547). During this time a progressive loss of tone occurred because of iNOS induction. Cumulative concentration curves were then obtained for the inhibitors.

The nature of data set [1]: Oral bioavailability and pharmacokinetics in rats. Type of data set: in vivo, rat. The procedure:
4. Method for Determining the Oral Bioavailability of iNOS Inhibitor Compounds
Rats (3 animals per time point) were dosed intravenously (10 mg/kg) and orally (50 mg/kg) with test compound in an aqueous solution. Blood samples were taken at time intervals after administration and plasma prepared by centrifugation. Samples were stored at −20° C. until analysis.
Plasma (50 μl) was de-proteinated and compound derivatised with a quaternary ammonium reagent. Samples were then injected onto an HPLC system and compound concentration determined using mass spectrometric detection.
The plasma concentrations obtained by the above method were entered into a pharmacokinetic software package (PKCAL v 1.2s) and the data were fitted using a non-compartmental method. The oral bioavailability of the compounds was determined by comparing the Area Under the Curve (AUC) values calculated by the software for the oral profile with the AUC for the intravenous profile. The half-lives were obtained by fitting the terminal phase time points of the intravenous profile.

The next data set addresses T3, eNOS (Rattus norvegicus, UniProt Q62600).
T3 construct: from tissue; host or cells: rat thoracic aorta rings with intact endothelium
Nature of the data set: Inhibition of eNOS in situ in rat aortic rings (basal tone, intact endothelium, ring tension). Type of data set: cell-based. As to conditions: rat aortic rings with intact endothelium, threshold phenylephrine. As to the method: as §1, §2

The next data set deals with T4, nNOS (Rattus norvegicus, UniProt P29476).
T4 construct: rat cerebral cortex slices; from tissue; host or cells: rat cerebral cortex slices (McIlwain-chopped)
Nature of the data set: Inhibition of nNOS in rat cortical slices (14C-arginine to 14C-citrulline). It counts as cell-based. As to the method:
3. Inhibition of nNOS in Rat Cortical Slices
The effects of compounds on nNOS in rat brain slices was determined as described in Furfine et al (1994) J. Biol. Chem. 269, 26677-26683 and Lizasoain et al (1995) J. Neurochem. 64, 636-642. KCl (54 mM)—stimulated NO synthesis was measured by the conversion of 14C-arginine to 14C-citrulline over a 2 h period at 37° C. in Mcllwain—chopped (0.2 mm ×0.2 mm) rat cerebral cortex slices, following a 1 h preincubation period in the absence of compound or high KCl.

T1 sequence (P35228 whole entry): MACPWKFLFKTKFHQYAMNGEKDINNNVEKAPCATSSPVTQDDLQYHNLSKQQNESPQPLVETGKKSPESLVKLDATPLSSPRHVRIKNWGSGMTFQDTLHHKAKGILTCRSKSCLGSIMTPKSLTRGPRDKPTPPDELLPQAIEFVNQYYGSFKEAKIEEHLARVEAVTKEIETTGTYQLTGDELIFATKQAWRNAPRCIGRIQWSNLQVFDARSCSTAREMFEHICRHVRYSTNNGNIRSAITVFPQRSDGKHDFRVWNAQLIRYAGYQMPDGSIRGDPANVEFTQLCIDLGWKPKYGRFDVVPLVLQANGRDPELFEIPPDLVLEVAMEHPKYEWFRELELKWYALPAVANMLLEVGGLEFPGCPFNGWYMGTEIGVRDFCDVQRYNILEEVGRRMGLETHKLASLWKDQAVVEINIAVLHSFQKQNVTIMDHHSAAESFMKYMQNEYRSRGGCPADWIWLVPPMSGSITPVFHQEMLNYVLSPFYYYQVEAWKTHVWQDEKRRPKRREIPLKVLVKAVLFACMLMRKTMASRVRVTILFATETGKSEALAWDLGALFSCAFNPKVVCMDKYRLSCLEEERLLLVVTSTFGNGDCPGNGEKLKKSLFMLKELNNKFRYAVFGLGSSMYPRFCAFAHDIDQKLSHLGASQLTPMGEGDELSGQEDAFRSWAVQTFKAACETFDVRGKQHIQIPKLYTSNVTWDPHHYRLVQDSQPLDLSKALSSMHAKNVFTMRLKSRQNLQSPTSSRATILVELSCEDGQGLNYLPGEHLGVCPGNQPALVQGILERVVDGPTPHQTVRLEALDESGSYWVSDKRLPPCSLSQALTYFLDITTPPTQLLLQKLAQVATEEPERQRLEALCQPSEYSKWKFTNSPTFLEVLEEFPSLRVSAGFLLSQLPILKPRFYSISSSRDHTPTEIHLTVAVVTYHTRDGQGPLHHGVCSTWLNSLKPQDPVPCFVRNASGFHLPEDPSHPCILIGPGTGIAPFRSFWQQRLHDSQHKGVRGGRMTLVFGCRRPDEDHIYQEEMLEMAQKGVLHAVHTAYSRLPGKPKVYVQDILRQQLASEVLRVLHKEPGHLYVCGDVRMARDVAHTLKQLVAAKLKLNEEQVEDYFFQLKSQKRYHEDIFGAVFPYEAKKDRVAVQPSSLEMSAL
T4 sequence (P29476 whole entry): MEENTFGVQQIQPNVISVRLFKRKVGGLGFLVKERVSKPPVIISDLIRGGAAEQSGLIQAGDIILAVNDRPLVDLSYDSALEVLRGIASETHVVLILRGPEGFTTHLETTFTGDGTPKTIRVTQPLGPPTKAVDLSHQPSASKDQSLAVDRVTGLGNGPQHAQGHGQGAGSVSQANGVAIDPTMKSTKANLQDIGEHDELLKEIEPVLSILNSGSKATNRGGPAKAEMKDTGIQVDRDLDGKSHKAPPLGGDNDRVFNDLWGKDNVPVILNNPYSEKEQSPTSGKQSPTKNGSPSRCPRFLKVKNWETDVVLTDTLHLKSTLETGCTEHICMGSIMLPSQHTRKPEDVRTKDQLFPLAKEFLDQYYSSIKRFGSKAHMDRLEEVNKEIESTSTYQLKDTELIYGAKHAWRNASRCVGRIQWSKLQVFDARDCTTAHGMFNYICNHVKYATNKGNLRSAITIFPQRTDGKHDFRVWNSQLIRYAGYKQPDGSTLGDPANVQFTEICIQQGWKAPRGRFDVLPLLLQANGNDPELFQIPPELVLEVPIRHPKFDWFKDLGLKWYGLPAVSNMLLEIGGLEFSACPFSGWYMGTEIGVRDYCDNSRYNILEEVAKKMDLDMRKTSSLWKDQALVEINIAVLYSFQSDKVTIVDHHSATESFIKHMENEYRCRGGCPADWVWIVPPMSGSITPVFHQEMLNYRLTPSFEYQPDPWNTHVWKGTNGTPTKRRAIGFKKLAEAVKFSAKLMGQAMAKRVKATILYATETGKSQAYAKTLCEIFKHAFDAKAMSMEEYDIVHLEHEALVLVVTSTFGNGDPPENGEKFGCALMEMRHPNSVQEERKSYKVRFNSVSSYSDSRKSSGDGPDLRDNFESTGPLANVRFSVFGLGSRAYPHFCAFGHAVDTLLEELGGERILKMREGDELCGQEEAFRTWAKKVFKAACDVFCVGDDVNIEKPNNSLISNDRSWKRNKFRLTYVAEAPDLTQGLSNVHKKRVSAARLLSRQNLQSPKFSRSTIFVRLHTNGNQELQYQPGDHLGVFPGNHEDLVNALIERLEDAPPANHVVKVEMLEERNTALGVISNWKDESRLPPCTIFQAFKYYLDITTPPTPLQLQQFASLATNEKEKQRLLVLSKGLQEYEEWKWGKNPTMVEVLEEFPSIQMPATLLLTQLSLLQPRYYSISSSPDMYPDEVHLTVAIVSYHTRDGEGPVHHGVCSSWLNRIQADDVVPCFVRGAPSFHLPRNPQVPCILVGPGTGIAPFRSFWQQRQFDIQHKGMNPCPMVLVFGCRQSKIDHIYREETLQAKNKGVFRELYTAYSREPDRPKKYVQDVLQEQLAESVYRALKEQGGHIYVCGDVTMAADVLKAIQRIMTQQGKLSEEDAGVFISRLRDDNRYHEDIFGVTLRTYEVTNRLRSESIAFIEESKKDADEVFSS
T2 sequence (Q06518 whole entry): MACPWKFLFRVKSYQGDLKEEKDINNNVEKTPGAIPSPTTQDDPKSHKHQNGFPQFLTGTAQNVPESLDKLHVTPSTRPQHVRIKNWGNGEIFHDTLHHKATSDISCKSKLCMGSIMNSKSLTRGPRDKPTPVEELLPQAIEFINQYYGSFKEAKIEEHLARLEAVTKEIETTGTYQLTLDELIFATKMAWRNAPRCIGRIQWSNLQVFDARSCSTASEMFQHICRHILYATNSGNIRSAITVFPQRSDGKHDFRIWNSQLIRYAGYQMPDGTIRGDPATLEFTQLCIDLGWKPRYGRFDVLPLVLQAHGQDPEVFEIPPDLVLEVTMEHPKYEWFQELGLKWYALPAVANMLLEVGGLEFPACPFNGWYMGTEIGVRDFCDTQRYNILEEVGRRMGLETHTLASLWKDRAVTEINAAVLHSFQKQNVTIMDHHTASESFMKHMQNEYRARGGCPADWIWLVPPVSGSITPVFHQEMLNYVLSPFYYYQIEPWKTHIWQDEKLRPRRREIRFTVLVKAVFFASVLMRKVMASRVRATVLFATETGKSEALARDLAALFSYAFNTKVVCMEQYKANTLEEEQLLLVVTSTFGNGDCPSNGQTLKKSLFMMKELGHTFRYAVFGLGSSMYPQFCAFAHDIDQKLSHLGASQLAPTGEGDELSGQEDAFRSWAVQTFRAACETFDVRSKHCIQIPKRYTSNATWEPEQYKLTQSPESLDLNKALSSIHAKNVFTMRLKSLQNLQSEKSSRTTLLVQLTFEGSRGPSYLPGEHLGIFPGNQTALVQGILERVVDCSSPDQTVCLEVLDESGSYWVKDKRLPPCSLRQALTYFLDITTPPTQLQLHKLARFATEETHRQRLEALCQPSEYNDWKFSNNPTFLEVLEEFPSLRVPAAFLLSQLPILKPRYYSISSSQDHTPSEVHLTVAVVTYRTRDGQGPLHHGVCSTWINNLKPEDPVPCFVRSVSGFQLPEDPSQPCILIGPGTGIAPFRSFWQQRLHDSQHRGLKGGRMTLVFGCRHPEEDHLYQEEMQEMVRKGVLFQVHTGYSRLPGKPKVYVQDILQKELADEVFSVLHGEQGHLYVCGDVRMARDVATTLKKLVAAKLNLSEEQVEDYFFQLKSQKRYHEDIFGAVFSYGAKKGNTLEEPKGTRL
T3 sequence (Q62600 2-1202): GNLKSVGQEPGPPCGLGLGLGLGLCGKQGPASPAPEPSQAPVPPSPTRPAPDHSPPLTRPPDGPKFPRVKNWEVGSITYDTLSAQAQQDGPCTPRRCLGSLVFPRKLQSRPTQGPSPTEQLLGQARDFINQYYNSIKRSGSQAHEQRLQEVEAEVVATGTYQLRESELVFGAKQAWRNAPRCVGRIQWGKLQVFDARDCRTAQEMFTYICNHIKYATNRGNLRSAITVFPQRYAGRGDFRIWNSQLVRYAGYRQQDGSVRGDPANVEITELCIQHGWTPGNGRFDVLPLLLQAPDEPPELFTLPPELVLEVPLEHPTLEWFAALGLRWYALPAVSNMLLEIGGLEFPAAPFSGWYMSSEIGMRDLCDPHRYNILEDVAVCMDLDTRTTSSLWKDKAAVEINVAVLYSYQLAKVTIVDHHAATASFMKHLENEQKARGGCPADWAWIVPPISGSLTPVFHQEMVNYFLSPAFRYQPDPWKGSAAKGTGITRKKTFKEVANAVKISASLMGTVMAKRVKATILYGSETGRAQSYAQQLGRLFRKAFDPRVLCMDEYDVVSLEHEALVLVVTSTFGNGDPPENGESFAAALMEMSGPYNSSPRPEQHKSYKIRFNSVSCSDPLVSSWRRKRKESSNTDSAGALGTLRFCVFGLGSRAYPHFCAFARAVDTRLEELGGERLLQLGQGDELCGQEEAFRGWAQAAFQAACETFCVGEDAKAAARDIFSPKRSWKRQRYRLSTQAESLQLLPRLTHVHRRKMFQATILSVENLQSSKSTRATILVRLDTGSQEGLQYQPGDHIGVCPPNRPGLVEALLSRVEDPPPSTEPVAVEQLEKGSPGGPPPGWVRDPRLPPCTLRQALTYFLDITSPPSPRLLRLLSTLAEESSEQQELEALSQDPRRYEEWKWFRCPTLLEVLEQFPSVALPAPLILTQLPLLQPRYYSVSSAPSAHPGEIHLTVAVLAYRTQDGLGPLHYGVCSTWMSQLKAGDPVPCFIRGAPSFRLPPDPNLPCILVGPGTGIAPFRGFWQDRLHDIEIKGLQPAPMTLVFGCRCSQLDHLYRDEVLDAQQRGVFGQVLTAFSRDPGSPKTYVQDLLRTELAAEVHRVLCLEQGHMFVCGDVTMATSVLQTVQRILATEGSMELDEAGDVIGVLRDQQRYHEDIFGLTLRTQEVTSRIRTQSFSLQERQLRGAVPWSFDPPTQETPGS

Turning to “S-[(R)-2-(1-Iminoethylamino)propyl]-D-cysteine Dihydrochloride [Example 4]”, at human iNOS, it took 48 µM to reach half-maximal inhibition (IC50).
In the case of “S-[(R)-2-(1-Iminoethylamino)propyl]-L-cysteine Dihydrochloride [Example 1]”, the “selectivity iNOS vs eNOS” value at iNOS is recorded as over 75. For the same substance, the IC50 was 0.26 µM against iNOS (endothelium-denuded, LPS 0.1 μg/ml 6 h, phenylephrine approx. ED90); 2 µM against human iNOS; over 20 µM against eNOS; over 80 µM on nNOS (rat cerebral cortex slices, KCl (54 mM)-stimulated NO synthesis, 2 h, 37° C.). This substance displayed a half-life in data set [1] (intravenous 10 mg/kg, terminal phase) of 2 to 4 h. In data set [1] (oral 50 mg/kg vs intravenous 10 mg/kg, AUC comparison), the oral bioavailability is over 90%. Further, the “selectivity for iNOS versus nNOS” value at nNOS (rat tissue assays) is on record as over 300 fold.
With “S-[(R/S)-2-(1-Iminoethylamino, 2-Cyclopropyl)ethyl]-L-cysteine Dihydrochloride [Example 7]”, on human iNOS, half-maximal inhibition (IC50) required 6.2 µM.
Substance “S-[(S)-2-(1-Iminoethylamino)propyl]-D-cysteine Dihydrochloride [Example 3]” yielded an IC50 at human iNOS of 6.6 µM.
In turn, “S-[(S)-2-(1-Iminoethylamino)propyl]-L-cysteine Dihydrochloride [Example 2]” showed an IC50 at human iNOS of 39 µM.

For the origin of these results see US6495606B1, “Nitric oxide synthase inhibitors” (SmithKline Beecham Corporation, priority 1998, dated 2002).
